{"source": "patent US9169270B2", "about": "“1-phenyl-substituted heterocyclyl derivatives and their use as prostaglandin D2 receptor modulators” (Actelion Pharmaceuticals Ltd., priority 2012, dated 2015)"}
{"target": "hCRTH2 receptor (Homo sapiens (Human), UniProt Q9Y5Y4)", "sequence (Q9Y5Y4 whole entry, the tested form may be a part)": "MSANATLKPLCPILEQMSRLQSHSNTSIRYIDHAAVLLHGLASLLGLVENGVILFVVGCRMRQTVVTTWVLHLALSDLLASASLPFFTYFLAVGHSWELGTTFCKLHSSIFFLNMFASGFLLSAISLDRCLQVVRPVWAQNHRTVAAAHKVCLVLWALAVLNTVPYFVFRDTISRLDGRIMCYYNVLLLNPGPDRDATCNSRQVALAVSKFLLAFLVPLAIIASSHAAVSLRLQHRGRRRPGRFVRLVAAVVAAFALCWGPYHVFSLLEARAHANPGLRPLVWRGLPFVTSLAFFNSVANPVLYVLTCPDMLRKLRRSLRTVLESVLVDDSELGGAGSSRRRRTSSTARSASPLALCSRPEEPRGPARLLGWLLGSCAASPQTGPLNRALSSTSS", "experiment": "hCRTH2 receptor membranes radioligand (3H-PGD2) displacement assay", "details": "hCRTH2 membrane fragments, Binding-Buffer with 0.1% BSA", "experimental": "Biological Assays: Preparation of hCRTH2 Receptor Membranes and Radioligand Displacement Assay:\nFirst, recombinant HEK293-hCRTH2 cells were detached from culture plates into 5 ml buffer A/plate (Buffer A: 5 mM Tris, 1 mM MgCl2-6H2O pH=7.4) using a rubber policeman. Cells were then transferred into centrifugation tubes and centrifuged for 5 min at 400 g. The cell pellet was resuspended in the same buffer and tubes were frozen at −80° C. Cells were thawed and membrane fragments were generated by homogenization using a polytron homogenizer (30 seconds). The membrane fragments were then centrifuged at 3000 g for 20 minutes and resuspended in buffer C (Buffer C: 75 mM Tris, 25 mM MgCl2, 250 mM Saccharose pH 7.4). Aliquots of membrane fragments were stored at −20° C.\nBinding assay was performed in a final assay volume of 250 μl. First, 25 μl of test compound, previously diluted in Binding-Buffer (Binding-Buffer: 50 mM Tris-Base, 100 mM NaCl, 1 mM EDTA, 0.1% BSA (protease free), 0.01% NaN3, 10 mM MnCl2, pH 7.0) was placed into each well. […] Binding assay was started by addition of 100 μl CRTH2 membrane fragments, reaching a final concentration of 20 μg/well. For non-specific binding, PGD2 was added to the reaction mixture to […] final concentration. This assay mix was incubated for 90 minutes at room temperature and then filtered through a GF/C filter 96-well plate which was pre-soaked for 3 hours in 0.5% polyethyleneimine (PEI). The filter-wells were washed three times with ice cold Binding-Buffer. Then, 40 μl of Microscint-40 (Packard) was added to each well and the retained radioactivity quantified in a Topcount (Packard).", "units": {"IC50": "nM"}}
{"smiles": "O=C(O)COc1ccc(Cl)cc1C1c2scnc2CCN1C(=O)/C=C/c1ccccc1", "note": "(racemic) [Example 45, (±)-(4-Chloro-2-{5-[(E)-(3-phenyl-acryloyl)]-4,5,6,7-tetrahydro-thiazolo[5,4-c]pyridin-4-yl}-phenoxy)-acetic acid]", "IC50": 59.6}
{"smiles": "O=C(O)COc1ccc(Cl)cc1C1c2scnc2CCN1C(=O)CC1Cc2ccccc2C1", "note": "(racemic) [Example 46, (±)-{4-Chloro-2-[5-(2-indan-2-yl-acetyl)-4,5,6,7-tetrahydro-thiazolo[5,4-c]pyridin-4-yl]-phenoxy}-acetic acid]", "IC50": 6.2}
{"smiles": "CC1(C)CC1C(=O)N1CCc2ncsc2C1c1cc(Cl)ccc1OCC(=O)O", "note": "(racemic) [Example 47, (±)-{4-Chloro-2-[(±)-5-(2,2-dimethyl-cyclopropanecarbonyl)-4,5,6,7-tetrahydro-thiazolo[5,4-c]pyridin-4-yl]-phenoxy}-acetic acid]", "IC50": 37.1}
{"smiles": "O=C(O)COc1ccc(Cl)cc1C1c2scnc2CCN1C(=O)CC1CCCCC1", "note": "(racemic) [Example 48, (±)-{4-Chloro-2-[5-(2-cyclohexyl-acetyl)-4,5,6,7-tetrahydro-thiazolo[5,4-c]pyridin-4-yl]-phenoxy}-acetic acid]", "IC50": 73}
{"smiles": "O=C(O)COc1ccc(Cl)cc1C1c2scnc2CCN1C(=O)Cc1ccc2ccccc2c1", "note": "(racemic) [Example 49, (±)-{4-Chloro-2-[5-(2-naphthalen-2-yl-acetyl)-4,5,6,7-tetrahydro-thiazolo[5,4-c]pyridin-4-yl]-phenoxy}-acetic acid]", "IC50": 15.8}
{"smiles": "O=C(O)COc1ccc(Cl)cc1C1c2scnc2CCN1C(=O)Cc1cccc2ccccc12", "note": "(racemic) [Example 50, (±)-{4-Chloro-2-[5-(2-naphthalen-1-yl-acetyl)-4,5,6,7-tetrahydro-thiazolo[5,4-c]pyridin-4-yl]-phenoxy}-acetic acid]", "IC50": 12.6}
{"smiles": "O=C(O)COc1ccc(Cl)cc1C1c2scnc2CCN1C(=O)CCCc1ccc(F)cc1", "note": "(racemic) [Example 51, (±)-(4-Chloro-2-{5-[4-(4-fluoro-phenyl)-butyryl]-4,5,6,7-tetrahydro-thiazolo[5,4-c]pyridin-4-yl}-phenoxy)-acetic acid]", "IC50": 9.7}
{"smiles": "O=C(O)COc1ccc(Cl)cc1C1c2scnc2CCN1C(=O)CCN1CCc2ccccc21", "note": "(racemic) [Example 52, (±)-{4-Chloro-2-[5-(3-2,3-dihydro-indol-1-yl-propionyl)-4,5,6,7-tetrahydro-thiazolo[5,4-c]pyridin-4-yl]-phenoxy}-acetic acid]", "IC50": 17.7}
{"smiles": "COc1ccc(/C=C/C(=O)N2CCc3ncsc3C2c2cc(Cl)ccc2OCC(=O)O)cc1", "note": "(racemic) [Example 54, (±)-(4-Chloro-2-{5-[(E)-3-(4-methoxy-phenyl)-acryloyl]-4,5,6,7-tetrahydro-thiazolo[5,4-c]pyridin-4-yl}-phenoxy)-acetic acid]", "IC50": 41.2}
{"smiles": "Cc1ccc(/C=C/C(=O)N2CCc3ncsc3C2c2cc(Cl)ccc2OCC(=O)O)cc1", "note": "(racemic) [Example 56, (±)-{4-Chloro-2-[5-((E)-3-p-tolyl-acryloyl)-4,5,6,7-tetrahydro-thiazolo[5,4-c]pyridin-4-yl]-phenoxy}-acetic acid]", "IC50": 71.9}
{"smiles": "O=C(O)COc1ccc(Cl)cc1C1c2scnc2CCN1C(=O)/C=C/c1ccc(F)cc1F", "note": "(racemic) [Example 57, (±)-(4-Chloro-2-{5-[(E)-3-(2,4-difluoro-phenyl)-acryloyl]-4,5,6,7-tetrahydro-thiazolo[5,4-c]pyridin-4-yl}-phenoxy)-acetic acid]", "IC50": 3.5}
{"smiles": "CCC(C)COC(=O)N1CCc2ncsc2[C@H]1c1cc(Cl)ccc1OCC(=O)O", "note": "(mixture of isomers) [Example 70, (R)-4-(2-Carboxymethoxy-5-chloro-phenyl)-6,7-dihydro-4H-thiazolo[5,4-c]pyridine-5-carboxylic acid (±)-2-methyl-butyl ester]", "IC50": 2.8}
{"smiles": "O=C(O)COc1ccc(Cl)cc1C1c2scnc2CCN1C(=O)OCCc1cccc(F)c1", "note": "(racemic) [Example 77, (±)-4-(2-Carboxymethoxy-5-chloro-phenyl)-6,7-dihydro-4H-thiazolo[5,4-c]pyridine-5-carboxylic acid 2-(3-fluoro-phenyl)-ethyl ester]", "IC50": 2.3}
{"smiles": "O=C(O)COc1ccc(Cl)cc1C1c2scnc2CCN1C(=O)OCc1ccccc1F", "note": "(racemic) [Example 79, (±)-4-(2-Carboxymethoxy-5-chloro-phenyl)-6,7-dihydro-4H-thiazolo[5,4-c]pyridine-5-carboxylic acid 2-fluoro-benzyl ester]", "IC50": 3}
{"smiles": "O=C(O)COc1ccc(Cl)cc1C1c2scnc2CCN1C(=O)OCc1ccc(F)cc1", "note": "(racemic) [Example 80, (±)-4-(2-Carboxymethoxy-5-chloro-phenyl)-6,7-dihydro-4H-thiazolo[5,4-c]pyridine-5-carboxylic acid 4-fluoro-benzyl ester]", "IC50": 1.9}
{"smiles": "O=C(O)COc1ccc(Cl)cc1C1c2scnc2CCN1C(=O)OCc1cccc(Cl)c1Cl", "note": "(racemic) [Example 81, (±)-4-(2-Carboxymethoxy-5-chloro-phenyl)-6,7-dihydro-4H-thiazolo[5,4-c]pyridine-5-carboxylic acid 2,3-dichloro-benzyl ester]", "IC50": 1.2}
{"smiles": "O=C(O)COc1ccc(Cl)cc1C1c2scnc2CCN1C(=O)OCc1cccc(F)c1F", "note": "(racemic) [Example 82, (±)-4-(2-Carboxymethoxy-5-chloro-phenyl)-6,7-dihydro-4H-thiazolo[5,4-c]pyridine-5-carboxylic acid 2,3-difluoro-benzyl ester]", "IC50": 8.5}
{"smiles": "O=C(O)COc1ccc(Cl)cc1C1c2scnc2CCN1C(=O)OCc1ccccc1Cl", "note": "(racemic) [Example 84, (±)-4-(2-Carboxymethoxy-5-chloro-phenyl)-6,7-dihydro-4H-thiazolo[5,4-c]pyridine-5-carboxylic acid 2-chloro-benzyl ester]", "IC50": 3.5}
{"smiles": "O=C(O)COc1ccc(Cl)cc1C1c2scnc2CCN1C(=O)OCc1ccc(Cl)cc1", "note": "(racemic) [Example 86, (±)-4-(2-Carboxymethoxy-5-chloro-phenyl)-6,7-dihydro-4H-thiazolo[5,4-c]pyridine-5-carboxylic acid 4-chloro-benzyl ester]", "IC50": 1.7}
{"smiles": "O=C(O)COc1ccc(Cl)cc1C1c2scnc2CCN1C(=O)OCCc1ccccc1", "note": "(racemic) [Example 88, (±)-4-(2-Carboxymethoxy-5-chloro-phenyl)-6,7-dihydro-4H-thiazolo[5,4-c]pyridine-5-carboxylic acid phenethyl ester]", "IC50": 6.4}
{"smiles": "O=C(O)COc1ccc(Cl)cc1C1c2scnc2CCN1C(=O)OCn1ncc2ccccc21", "note": "(racemic) [Example 90, (±)-4-(2-Carboxymethoxy-5-chloro-phenyl)-6,7-dihydro-4H-thiazolo[5,4-c]pyridine-5-carboxylic acid indazol-1-ylmethyl ester]", "IC50": 1.6}
{"smiles": "CCn1nc(C)cc1CCOC(=O)N1CCc2ncsc2C1c1cc(Cl)ccc1OCC(=O)O", "note": "(racemic) [Example 91, (±)-4-(2-Carboxymethoxy-5-chloro-phenyl)-6,7-dihydro-4H-thiazolo[5,4-c]pyridine-5-carboxylic acid 2-(2-ethyl-5-methyl-2H-pyrazol-3-yl)-ethyl ester]", "IC50": 3.7}
{"smiles": "O=C(O)COc1ccc(Cl)cc1C1c2scnc2CCN1C(=O)OCc1cc(F)ccc1Cl", "note": "(racemic) [Example 92, (±)-4-(2-Carboxymethoxy-5-chloro-phenyl)-6,7-dihydro-4H-thiazolo[5,4-c]pyridine-5-carboxylic acid 2-chloro-5-fluoro-benzyl ester]", "IC50": 2.2}
